Among the data in PubChem BioAssay AID2124 (Sanford-Burnham Center for Chemical Genomics, 2009) are cell count and EC50 values, retold here.

Assay [1] can be described thus: cell-permeable autofluorescent compounds in GFP channel, dose response, artefact control, imaging, high-content imaging (AID 2124).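 For cell count: cells exposed to compound for 48 hours before fixing.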 As to conditions: cells, GFP-channel autofluorescence, high-content imaging; cell count; at 10 µM.
The test system of assay [2] is cells, GFP-channel autofluorescence, high-content imaging. The assay is described as above.

In general, EC50 refers to the midpoint of the concentration-response curve.

Results filed as inconclusive are left out. Activity calls are given as the source filed them. The rule behind the calls is not given here; tested in MIN6 cells.

For the compound `N#C/C(=C/c1ccc(N2CCCCC2)o1)c1cccc(F)c1`, the cell count in assay [1] is 1730 cells. In addition, the EC50 in assay [2] was 5.32 µM.
For the compound `COc1cc([C@@H]2[C@H]3CNCC=C3C(C#N)=C(N)C2(C#N)C#N)ccc1OC(C)C`, in assay [1], the cell count is 3160 cells. Besides, the EC50 in assay [2] is 13.6 µM (inactive).
The compound `COc1ccc(CN2C(=O)/C(=C/c3ccc(-c4ccc(Cl)c(C(=O)O)c4)o3)SC2=S)cc1` returned a cell count in assay [1] of 3020 cells. The EC50 in assay [2] was > 16 µM (inactive).
In the same order, the values of `N#C/C(=C/c1ccc(N2CCOCC2)o1)c1ccc(Cl)cc1` are 1320 cells and 7.31 µM.
In the same order, the values of `CC(=O)Nc1cccc(C(=O)/C=C/c2ccc(N(C)C)cc2)c1` are 2940 cells and 12 µM (inactive).
In the same order, the values of `O=c1c(Cl)c2oc3ccccc3nc-2c2ccccc12` are 2670 cells and 6.42 µM.
`COCCN1C(=O)/C(=C/c2ccc(N3CCCC3)cc2)SC1=S`: the cell count in assay [1] was found to be 3330 cells. Further, the EC50 in assay [2] was 9.79 µM.
In the same order, the values of `CN1CC=C2C(C#N)=C(N)C(C#N)(C#N)[C@H](c3cccc(Cl)c3)C2C1` (stereo partly specified) are 2960 cells and 9.06 µM.
In the same order, the values of `CCCNc1c(F)c(F)c2c(C)c3ccccc3nc2c1F` are 3140 cells and 10.9 µM (inactive).
As for `Nc1ccc2c(c1)Cc1cc([N+](=O)[O-])ccc1-2`, the cell count in assay [1] came to 2910 cells. Further, the EC50 in assay [2] was 4.22 µM.
`COc1ccc(NC(=O)/C(C#N)=C\c2ccc(N3CCOCC3)o2)cc1` registered a cell count in assay [1] of 3270 cells. Also, the EC50 in assay [2] was 11.6 µM (inactive).
In assay [1], `CNC(=O)c1c(NC(=O)c2ccc(S(=O)(=O)N3CCCc4ccccc43)cc2)sc2c1CCN(C)C2` had a cell count of 3190 cells. Also, the EC50 in assay [2] is 8.08 µM.
`CN1CC=C2C(C#N)=C(N)C(C#N)(C#N)C(c3ccncc3)C2C1` (stereo unspecified) registered a cell count in assay [1] of 2850 cells. Besides, the EC50 in assay [2] is 14.8 µM (inactive).
On to `N#C/C(=C\c1ccc(N2CCOCC2)o1)c1ccccc1`, for which the cell count in assay [1] is 2130 cells. Also, in assay [2], the EC50 is > 16 µM (inactive).
The compound `C=CCN1C(=O)/C(=C/c2ccc(N(C)C)cc2)S/C1=N\c1nnc(CC)s1` returned a cell count in assay [1] of 2900 cells. For the same compound, in assay [2], the EC50 was 5.38 µM.
Regarding `CCN(CC)c1ccc2cc(/C(N)=N/NC(=O)c3cccs3)c(=O)oc2c1`, the cell count in assay [1] was 3050 cells. The EC50 in assay [2] is 8.97 µM.
For the compound `CCCN1C(=O)/C(=C/c2c(NCCCOC(C)C)nc3c(C)cccn3c2=O)SC1=S`, the cell count in assay [1] turned out to be 2790 cells. Moreover, in assay [2], the EC50 is > 16 µM (inactive).
Compound `N#CC1=C(N)C(C#N)(C#N)[C@H](c2ccoc2)[C@H]2CN(Cc3ccccc3)CC=C12` returned a cell count in assay [1] of 2630 cells. Also, in assay [2], the EC50 was 10.3 µM (inactive).
`COc1ccc(/C=C2\CC/C(=C\c3ccc(OC)cc3OC)C2=O)c(OC)c1` came in with a cell count in assay [1] of 3090 cells. Besides, the EC50 in assay [2] is 6.73 µM.
`COc1cc(/C=C(\C#N)c2nc3ccccc3o2)ccc1O` gave a cell count in assay [1] of 3540 cells. Further, in assay [2], the EC50 is 2.62 µM.
For the compound `CN1CC=C2C(C#N)=C(N)C(C#N)(C#N)C(c3cccc(Cl)c3Cl)C2C1` (stereo unspecified), in assay [1], the cell count is 3010 cells. Moreover, the EC50 in assay [2] is 11.9 µM (inactive).
With `CC(=O)c1cc(NC(=O)c2ccc(Cl)cc2)c(=O)oc1/C=C/N(C)C`, the cell count in assay [1] is 2840 cells. In addition, in assay [2], the EC50 is 9.14 µM.
In assay [1], `CC(C)NC(=O)/C(C#N)=C/c1ccc(N(C)C)o1` returned a cell count of 3230 cells. Besides, in assay [2], the EC50 was 14.3 µM (inactive).
